# Experimental data as given in patent US20170340544A1, “COSMETIC COMPOSITION FOR IMPROVING HEALTH OF SCALP AND METHOD OF PREPARING THE SAME” (OLIPASS Cosmeceuticals Company, priority 2016, published 2017).
# Ends that are not written are not given here.
# How the values were obtained:
# [1] = Cytotoxicity (MTT) of oligopeptide in HaCaT human keratinocytes; format: cell-based; conditions: 24 hr, MTT absorbance 570 nm as percentage of pure water control
# Procedure: (§1) In order to evaluate the stability of the oligopeptide prepared in Preparation Example 1 when applied to humans, irritation of the skin and scalp due to cytotoxicity was measured using a HaCaT cell line as human keratinocytes.
# (§2) The HaCaT cell line used therefor was incubated at 37° C. in a […] incubator. When the extent of incubation arrived at 85 to 90% of the area of a culture vessel, the cells were detached with trypsin, counted, and subjected to subculture at 5×10^3 cells/cm^2.
# (§3) For cell culture, a Dulbecco's Modified Eagle Medium (DMEM, GIBCO, Cat. No. 11995-065, USA), containing 10% fetal bovine serum (FBS, GIBCO, Cat. No., 26140-079, USA), 100 U/ml penicillin, and 100 μg/ml streptomycin, was used. For subculture, a 75 T-flask (NUNC, Cat. No. 156499, Denmark) was used, and the cytotoxicity test was carried out using a 24-well plate (NUNC, Cat. No. 142475, Denmark).
# (§4) The human keratinocytes were counted at 5×10^3 cells/well each and then aliquoted into the 24-well plate using a hemocytometer. These cells were incubated in DMEM containing 10% FBS for 48 hr. When the extent of incubation arrived at 40 to 50% of the surface area of the culture vessel, the medium was replaced with FBS-free DMEM containing each of 50 ppm oligopeptide and 100 ppm oligopeptide, and culture was further conducted for 24 hr. Thereafter, 50 μl of a 3-(4,5-dimethylthiazol-2-yl)-2,5-diphenyl tetrazolium bromide (MTT, Sigma M5655, USA) solution (2.5 mg/ml) was added and culture was further performed for 3 hr. Then, the cell culture broth was discarded, 200 μl of dimethyl sulfoxide (DMSO, Sigma D2650, USA) was added to each well and shaken, 100 μl thereof was transferred into a 96-well plate, and the absorbance thereof was measured at 570 nm using an Enzyme-Linked Immunosorbent Assay (ELISA).
# (§5) The cytotoxicity was represented as a percentage based on the absorbance intensity of a control using pure water.
# HaCaT cell line = assay: as above; format: cell-based; conditions: 50 ppm and 100 ppm oligopeptide
# Procedure: as §1, §2, §3, §4, §5
substance,measurement,setting,value
"GQQKRSDRLNLSR-OH [Oligopeptide, Gly-Gln-Gln-Lys-Arg-Ser-Asp-Arg-Leu-Asn-Leu-Ser-Arg]",viability,[1]; 50 ppm oligopeptide,93%
same,viability,[1]; 100 ppm oligopeptide,81%
same,cytotoxicity compared to the control,HaCaT cell line,no cytotoxicity
